Tested on: patient-derived organotypic tumor spheroids (PDOTS)
Test: Cytokine profiling of patient-derived organotypic tumor spheroids (PDOTS) in 3D microfluidic culture
Type: cell-based, human
Conditions: 100 nM; day 1 and day 3
Method: Experiments were performed as described (28). Briefly, fresh tumor specimens from human patients were received in media (DMEM) on ice and minced in 10 cm dishes (on ice) in a sterile field. S2 fractions (40-100 μm) were used for ex vivo culture as previously described (28). An aliquot of the S2 fraction was pelleted and re-suspended in type I rat-tail collagen (Corning, Corning, NY) and the spheroid-collagen mixture was then injected into the center gel region of the 3D microfluidic culture device. After 30 minutes at 37° C., collagen hydrogels containing PDOTS/MDOTS were hydrated with media with indicated treatments. MDOTS were treated with IgG isotype control (10 μg/mL, clone 2A3) or rat-α-mouse anti-PD-1 (10 μg/ml, clone RMP1-14, BioXCell). […]
Mouse lung broncho alveolar lavage (BAL) was performed by intracheal injection of 2 ml of sterile PBS followed by collection by aspiration. Cytokines were measured using 19-plex mouse magnetic Luminex kit (R&D systems), Mouse Cytokine 23-plex Assay (Bio-Rad) or Human Cytokine 40-plex Assay (Bio-Rad) and measured on Bio-Plex 200 system (Bio-Rad). […] Fold changes relative to the control were calculated and plotted as log 2FC. Lower and upper limits of quantitation (LLOQ/ULOQ) were derived from standard curves for cytokines above or below detection. […]

For `CN1CCN(c2ccc(Nc3ncc4cc5n(c4n3)C3(CCCCC3)CNC5=O)nc2)CC1` [trilaciclib], the “levels of Th1 cytokines (CXCL9, CXCL10, IFNγ, IL-16, CXCL16)” value was “increased levels of Th1 cytokines”.

From US11865176B2, “Compositions and methods of modulating anti-tumor immunity” (Dana-Farber Cancer Institute, Inc., priority 2016, dated 2024)
